Reference: ChEMBL document CHEMBL3885861, “Open TG-GATES”

Species on record: Rattus norvegicus
Test: Open TG-GATES - Regimen: Daily Repeat
Type: toxicity, organism-based, Sprague-Dawley
Set-up: regimen Daily Repeat, gender Male, age 6 weeks
Details: in vivo, po, route gavage; for APTT / Bas / Eos / Fbg / Hb / Ht / Lym / MCH / MCHC / MCV / Mono / Neu / PT / Plat / RBC / Ret / WBC: tissue Blood; for KIDNEY_L / KIDNEY_R / KIDNEY_TOTAL: tissue Kidney; for LIVER: tissue Liver; for A/G / ALP / ALT / AST / BUN / CRE / Ca / Cl / DBIL / GLC / IP / K / LDH / Na / PL / RALB / TBIL / TC / TG / TP / gamma-GTP: tissue Plasma
[1] = 0 mg/kg, 72 h, dose level Control, time 3 day
[2] = 0 mg/kg, […], dose level Control, time 7 day
[3] = 0 mg/kg, […], dose level Control, time 14 day
[4] = 0 mg/kg, […], dose level Control, time 28 day
[5] = 50 mg/kg, 72 h, dose level Low, time 3 day
[6] = 50 mg/kg, […], dose level Low, time 7 day
[7] = 50 mg/kg, […], dose level Low, time 14 day
[8] = 50 mg/kg, […], dose level Low, time 28 day

CC(=O)Oc1cc(C(C)C)c(OCCN(C)C)cc1C [MOXISYLYTE]
TERMINAL_BW [1]: 216.7 g
APTT [1]: 21.2 s
Bas [1]: 0%
Eos [1]: 1%
Fbg [1]: 327.4 mg/dL
Hb [1]: 13.7 g/dL
Ht [1]: 39.2%
Lym [1]: 81.2%
MCH [1]: 20.9 pg
MCHC [1]: 34.9%
MCV [1]: 59.9 fL
Mono [1]: 2.4%
Neu [1]: 14.2%
PT [1]: 16.5 s
Plat [1]: 116.4 x10_4/uL
RBC [1]: 655.4 x10_4/ul
Ret [1]: 6.2%
WBC [1]: 102.1 x10_2/uL
KIDNEY_L [1]: 0.9 g
KIDNEY_R [1]: 1 g
KIDNEY_TOTAL [1]: 1.9 g
LIVER [1]: 10.3 g
A/G [1]: 1.2
ALP [1]: 1472.6 IU/L
ALT [1]: 42.8 IU/L
AST [1]: 70.4 IU/L
BUN [1]: 17.2 mg/dL
CRE [1]: 0.2 mg/dL
Ca [1]: 10.8 mg/dL
Cl [1]: 106.6 meq/L
DBIL [1]: 0.004 mg/dL
GLC [1]: 181.4 mg/dL
IP [1]: 7 mg/dL
K [1]: 4.2 meq/L
LDH [1]: 202.6 IU/L
Na [1]: 142.4 meq/L
PL [1]: 154.2 mg/dL
RALB [1]: 3.1 g/dL
TBIL [1]: 0.014 mg/dL
TC [1]: 75.8 mg/dL
TG [1]: 97 mg/dL
TP [1]: 5.7 g/dL
gamma-GTP [1]: 1 IU/L
TERMINAL_BW [2]: 251.3 g
TERMINAL_BW [3]: 305.9 g
TERMINAL_BW [4]: 397.2 g
APTT [2]: 22.9 s
Bas [2]: 0%
Eos [2]: 0.6%
Fbg [2]: 294.6 mg/dL
Hb [2]: 13.6 g/dL
Ht [2]: 39%
Lym [2]: 81.4%
MCH [2]: 20.7 pg
MCHC [2]: 34.8%
MCV [2]: 59.5 fL
Mono [2]: 2%
Neu [2]: 15%
PT [2]: 15.6 s
Plat [2]: 119.6 x10_4/uL
RBC [2]: 656.8 x10_4/ul
Ret [2]: 5.1%
WBC [2]: 75.9 x10_2/uL
APTT [3]: 22.6 s
Bas [3]: 0%
Eos [3]: 1%
Fbg [3]: 308.2 mg/dL
Hb [3]: 15.1 g/dL
Ht [3]: 41.2%
Lym [3]: 79.4%
MCH [3]: 21.6 pg
MCHC [3]: 36.6%
MCV [3]: 59 fL
Mono [3]: 2%
Neu [3]: 16.4%
PT [3]: 16.1 s
Plat [3]: 118 x10_4/uL
RBC [3]: 699.2 x10_4/ul
Ret [3]: 5%
WBC [3]: 125 x10_2/uL
APTT [4]: 24 s
Bas [4]: 0%
Eos [4]: 1%
Fbg [4]: 320.8 mg/dL
Hb [4]: 14.4 g/dL
Ht [4]: 40.5%
Lym [4]: 82.2%
MCH [4]: 19.4 pg
MCHC [4]: 35.5%
MCV [4]: 54.7 fL
Mono [4]: 1.8%
Neu [4]: 13.5%
PT [4]: 15.9 s
Plat [4]: 100.5 x10_4/uL
RBC [4]: 741 x10_4/ul
Ret [4]: 3.1%
WBC [4]: 119.2 x10_2/uL
KIDNEY_L [2]: 1.1 g
KIDNEY_R [2]: 1.1 g
KIDNEY_TOTAL [2]: 2.1 g
KIDNEY_L [3]: 1.2 g
KIDNEY_R [3]: 1.3 g
KIDNEY_TOTAL [3]: 2.5 g
KIDNEY_L [4]: 1.5 g
KIDNEY_R [4]: 1.5 g
KIDNEY_TOTAL [4]: 3 g
LIVER [2]: 11.2 g
LIVER [3]: 13.3 g
LIVER [4]: 16.3 g
A/G [2]: 1.3
ALP [2]: 1660 IU/L
ALT [2]: 40.4 IU/L
AST [2]: 71.2 IU/L
BUN [2]: 18 mg/dL
CRE [2]: 0.2 mg/dL
Ca [2]: 10.7 mg/dL
Cl [2]: 106.6 meq/L
DBIL [2]: 0 mg/dL
GLC [2]: 189.2 mg/dL
IP [2]: 6.7 mg/dL
K [2]: 4.1 meq/L
LDH [2]: 219.2 IU/L
Na [2]: 142.6 meq/L
PL [2]: 155.2 mg/dL
RALB [2]: 3 g/dL
TBIL [2]: 0.004 mg/dL
TC [2]: 72.2 mg/dL
TG [2]: 138 mg/dL
TP [2]: 5.4 g/dL
gamma-GTP [2]: 1.4 IU/L
A/G [3]: 1.1
ALP [3]: 1709.2 IU/L
ALT [3]: 40 IU/L
AST [3]: 71.4 IU/L
BUN [3]: 20 mg/dL
CRE [3]: 0.2 mg/dL
Ca [3]: 10.7 mg/dL
Cl [3]: 106.2 meq/L
DBIL [3]: 0 mg/dL
GLC [3]: 197.6 mg/dL
IP [3]: 6 mg/dL
K [3]: 4.2 meq/L
LDH [3]: 170.8 IU/L
Na [3]: 141.4 meq/L
PL [3]: 148.4 mg/dL
RALB [3]: 3.1 g/dL
TBIL [3]: 0.008 mg/dL
TC [3]: 75.4 mg/dL
TG [3]: 114.6 mg/dL
TP [3]: 5.7 g/dL
gamma-GTP [3]: 1.4 IU/L
A/G [4]: 1.1
ALP [4]: 1031.5 IU/L
ALT [4]: 47.5 IU/L
AST [4]: 81.5 IU/L
BUN [4]: 17.5 mg/dL
CRE [4]: 0.2 mg/dL
Ca [4]: 10.3 mg/dL
Cl [4]: 104.5 meq/L
DBIL [4]: 0.0025 mg/dL
GLC [4]: 201.5 mg/dL
IP [4]: 6.9 mg/dL
K [4]: 4.1 meq/L
LDH [4]: 261 IU/L
Na [4]: 141 meq/L
PL [4]: 134.2 mg/dL
RALB [4]: 3 g/dL
TBIL [4]: 0.0025 mg/dL
TC [4]: 64.5 mg/dL
TG [4]: 116.5 mg/dL
TP [4]: 5.9 g/dL
gamma-GTP [4]: 1.5 IU/L
TERMINAL_BW [5]: 225.1 g
APTT [5]: 21.1 s
Bas [5]: 0%
Eos [5]: 1%
Fbg [5]: 329.8 mg/dL
Hb [5]: 13.7 g/dL
Ht [5]: 39.1%
Lym [5]: 80.6%
MCH [5]: 21.5 pg
MCHC [5]: 35%
MCV [5]: 61.5 fL
Mono [5]: 2.2%
Neu [5]: 14.6%
PT [5]: 16.2 s
Plat [5]: 126.9 x10_4/uL
RBC [5]: 635.6 x10_4/ul
Ret [5]: 6%
WBC [5]: 99.3 x10_2/uL
KIDNEY_L [5]: 1 g
KIDNEY_R [5]: 1 g
KIDNEY_TOTAL [5]: 1.9 g
LIVER [5]: 10.4 g
A/G [5]: 1.2
ALP [5]: 1826.8 IU/L
ALT [5]: 42.8 IU/L
AST [5]: 72.2 IU/L
BUN [5]: 16.2 mg/dL
CRE [5]: 0.2 mg/dL
Ca [5]: 11 mg/dL
Cl [5]: 106.4 meq/L
DBIL [5]: 0.004 mg/dL
GLC [5]: 178.8 mg/dL
IP [5]: 7.4 mg/dL
K [5]: 4.5 meq/L
LDH [5]: 242.8 IU/L
Na [5]: 141.4 meq/L
PL [5]: 158.8 mg/dL
RALB [5]: 3.1 g/dL
TBIL [5]: 0.004 mg/dL
TC [5]: 78.2 mg/dL
TG [5]: 108.8 mg/dL
TP [5]: 5.7 g/dL
gamma-GTP [5]: 1.2 IU/L
TERMINAL_BW [6]: 248.6 g
TERMINAL_BW [7]: 317.3 g
TERMINAL_BW [8]: 361 g
APTT [6]: 21.8 s
Bas [6]: 0%
Eos [6]: 0.6%
Fbg [6]: 312.6 mg/dL
Hb [6]: 13.7 g/dL
Ht [6]: 39.2%
Lym [6]: 79.6%
MCH [6]: 20.9 pg
MCHC [6]: 35.1%
MCV [6]: 59.5 fL
Mono [6]: 2.2%
Neu [6]: 16.8%
PT [6]: 15.9 s
Plat [6]: 122.1 x10_4/uL
RBC [6]: 659 x10_4/ul
Ret [6]: 4.9%
WBC [6]: 88.2 x10_2/uL
APTT [7]: 20.8 s
Bas [7]: 0%
Eos [7]: 1%
Fbg [7]: 308.8 mg/dL
Hb [7]: 14.2 g/dL
Ht [7]: 39.3%
Lym [7]: 77.8%
MCH [7]: 20.7 pg
MCHC [7]: 36.2%
MCV [7]: 57.2 fL
Mono [7]: 2.4%
Neu [7]: 18%
PT [7]: 16.1 s
Plat [7]: 108.1 x10_4/uL
RBC [7]: 686.8 x10_4/ul
Ret [7]: 5.1%
WBC [7]: 113.2 x10_2/uL
APTT [8]: 24.3 s
Bas [8]: 0%
Eos [8]: 1.2%
Fbg [8]: 324.8 mg/dL
Hb [8]: 14.9 g/dL
Ht [8]: 41.8%
Lym [8]: 84%
MCH [8]: 19.3 pg
MCHC [8]: 35.6%
MCV [8]: 54.3 fL
Mono [8]: 2%
Neu [8]: 12%
PT [8]: 16 s
Plat [8]: 101.5 x10_4/uL
RBC [8]: 770 x10_4/ul
Ret [8]: 2.5%
WBC [8]: 142.9 x10_2/uL
KIDNEY_L [6]: 1.1 g
KIDNEY_R [6]: 1.1 g
KIDNEY_TOTAL [6]: 2.2 g
KIDNEY_L [7]: 1.3 g
KIDNEY_R [7]: 1.2 g
KIDNEY_TOTAL [7]: 2.5 g
KIDNEY_L [8]: 1.4 g
KIDNEY_R [8]: 1.4 g
KIDNEY_TOTAL [8]: 2.8 g
LIVER [6]: 11.2 g
LIVER [7]: 14 g
LIVER [8]: 14.8 g
A/G [6]: 1.2
ALP [6]: 1475.2 IU/L
ALT [6]: 45 IU/L
AST [6]: 82.6 IU/L
BUN [6]: 16.6 mg/dL
CRE [6]: 0.2 mg/dL
Ca [6]: 10.6 mg/dL
Cl [6]: 106.6 meq/L
DBIL [6]: 0 mg/dL
GLC [6]: 179.4 mg/dL
IP [6]: 6.8 mg/dL
K [6]: 4.1 meq/L
LDH [6]: 202 IU/L
Na [6]: 141.6 meq/L
PL [6]: 146.6 mg/dL
RALB [6]: 3 g/dL
TBIL [6]: 0 mg/dL
TC [6]: 70.6 mg/dL
TG [6]: 144 mg/dL
TP [6]: 5.5 g/dL
gamma-GTP [6]: 1.2 IU/L
A/G [7]: 1.2
ALP [7]: 1349.4 IU/L
ALT [7]: 45.8 IU/L
AST [7]: 77.8 IU/L
BUN [7]: 19.8 mg/dL
CRE [7]: 0.2 mg/dL
Ca [7]: 10.8 mg/dL
Cl [7]: 107 meq/L
DBIL [7]: 0 mg/dL
GLC [7]: 186.6 mg/dL
IP [7]: 6.3 mg/dL
K [7]: 4.4 meq/L
LDH [7]: 256 IU/L
Na [7]: 141 meq/L
PL [7]: 156 mg/dL
RALB [7]: 3.2 g/dL
TBIL [7]: 0.002 mg/dL
TC [7]: 73.2 mg/dL
TG [7]: 184.6 mg/dL
TP [7]: 5.8 g/dL
gamma-GTP [7]: 1.4 IU/L
A/G [8]: 1
ALP [8]: 1078.4 IU/L
ALT [8]: 40.2 IU/L
AST [8]: 66.8 IU/L
BUN [8]: 17 mg/dL
CRE [8]: 0.2 mg/dL
Ca [8]: 10.4 mg/dL
Cl [8]: 106.6 meq/L
DBIL [8]: 0.002 mg/dL
GLC [8]: 184.4 mg/dL
IP [8]: 6.4 mg/dL
K [8]: 4.2 meq/L
LDH [8]: 147 IU/L
Na [8]: 142 meq/L
PL [8]: 151.2 mg/dL
RALB [8]: 3 g/dL
TBIL [8]: 0.002 mg/dL
TC [8]: 70 mg/dL
TG [8]: 170.4 mg/dL
TP [8]: 6 g/dL
gamma-GTP [8]: 2 IU/L
